Experimental data: publication PMC7808749, “Morpholine-based chalcones as dual-acting monoamine oxidase-B and acetylcholinesterase inhibitors: synthesis and biochemical investigations” (Journal of Enzyme Inhibition and Medicinal Chemistry, 2021)
Values after ≈ are worked out from the molar mass of the structure shown. “Also recorded” adds a separate entry of the source. Like-named read-outs stand apart in the source and are kept apart here.

Columns and labels:
recombinant human MAO-A = biological target: T1, recombinant human MAO-A (Homo sapiens, UniProt P21397); assay: MAO-A inhibition assay (kynuramine substrate); type: biochemical; details: for remaining activity at 10 µM: read-out: Residual activities (%) MAO-A (10 µM)
T1 sequence (P21397 1-527): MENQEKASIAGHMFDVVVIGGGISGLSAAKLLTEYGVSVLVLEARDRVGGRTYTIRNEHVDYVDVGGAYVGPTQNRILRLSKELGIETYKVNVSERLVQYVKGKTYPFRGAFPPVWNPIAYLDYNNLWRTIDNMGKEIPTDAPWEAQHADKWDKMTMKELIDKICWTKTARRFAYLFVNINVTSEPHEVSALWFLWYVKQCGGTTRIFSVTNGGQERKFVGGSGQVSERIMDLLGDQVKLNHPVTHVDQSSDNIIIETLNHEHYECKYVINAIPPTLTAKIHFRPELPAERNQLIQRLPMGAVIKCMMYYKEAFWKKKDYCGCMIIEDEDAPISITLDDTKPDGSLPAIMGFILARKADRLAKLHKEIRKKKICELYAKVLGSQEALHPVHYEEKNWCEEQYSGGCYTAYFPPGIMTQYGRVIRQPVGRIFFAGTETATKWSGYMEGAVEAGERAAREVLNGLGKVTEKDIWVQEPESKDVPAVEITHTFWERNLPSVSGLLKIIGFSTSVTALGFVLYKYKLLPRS
Protocol: (§1) MAO-A, MAO-B, AChE and BChE activities were measured after exposure to inhibitors at a concentration of 10 µM. […] IC50 values were determined by measuring the residual enzyme activities. […] Ki values and inhibitor types were determined by kinetic testing, as previously described. […] Lineweaver–Burk plots and their secondary plots were used to determine Ki values and inhibitor types.

BChE = BChE (Equus caballus, UniProt P81908); assay: biochemical; details: for remaining activity at 10 µM: read-out: Residual activities (%) BChE (10 µM)
Chain of BChE (P81908 whole entry): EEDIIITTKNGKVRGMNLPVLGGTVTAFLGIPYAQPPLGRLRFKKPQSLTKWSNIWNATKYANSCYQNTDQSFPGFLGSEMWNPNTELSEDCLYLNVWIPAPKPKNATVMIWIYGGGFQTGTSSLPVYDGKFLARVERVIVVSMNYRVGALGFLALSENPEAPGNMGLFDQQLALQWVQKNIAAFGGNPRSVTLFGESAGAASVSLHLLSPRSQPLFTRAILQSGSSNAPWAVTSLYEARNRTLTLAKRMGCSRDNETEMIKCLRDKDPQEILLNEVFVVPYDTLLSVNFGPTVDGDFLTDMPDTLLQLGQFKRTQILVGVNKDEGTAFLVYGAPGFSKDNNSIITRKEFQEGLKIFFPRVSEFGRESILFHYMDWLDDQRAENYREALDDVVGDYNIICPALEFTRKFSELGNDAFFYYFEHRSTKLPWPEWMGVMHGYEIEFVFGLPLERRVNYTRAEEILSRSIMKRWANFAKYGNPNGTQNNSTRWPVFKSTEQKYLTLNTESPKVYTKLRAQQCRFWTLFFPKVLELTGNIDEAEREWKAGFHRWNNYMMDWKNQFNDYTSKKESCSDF
Protocol: Colour development was performed using 0.5 mM 5,5′-dithiobis (2-nitrobenzoic acid) (DTNB), which reacts with thiocholine (a product of ATCI by AChE or of BTCI by BChE) to produce 5-thio 2-nitrobenzoic acid.
as §1

MAO-B [1] = biological target: T2, MAO-B (Homo sapiens, UniProt P27338); assay: MAO-B inhibition assay (benzylamine substrate); type: biochemical; details: for remaining activity at 1 µM: read-out: Residual activities (%) MAO-B (1.0 µM); for SI = IC50 of MAO-A/IC50 of MAO-B: selectivity for MAO-B over MAO-A
T2 sequence (P27338 1-520): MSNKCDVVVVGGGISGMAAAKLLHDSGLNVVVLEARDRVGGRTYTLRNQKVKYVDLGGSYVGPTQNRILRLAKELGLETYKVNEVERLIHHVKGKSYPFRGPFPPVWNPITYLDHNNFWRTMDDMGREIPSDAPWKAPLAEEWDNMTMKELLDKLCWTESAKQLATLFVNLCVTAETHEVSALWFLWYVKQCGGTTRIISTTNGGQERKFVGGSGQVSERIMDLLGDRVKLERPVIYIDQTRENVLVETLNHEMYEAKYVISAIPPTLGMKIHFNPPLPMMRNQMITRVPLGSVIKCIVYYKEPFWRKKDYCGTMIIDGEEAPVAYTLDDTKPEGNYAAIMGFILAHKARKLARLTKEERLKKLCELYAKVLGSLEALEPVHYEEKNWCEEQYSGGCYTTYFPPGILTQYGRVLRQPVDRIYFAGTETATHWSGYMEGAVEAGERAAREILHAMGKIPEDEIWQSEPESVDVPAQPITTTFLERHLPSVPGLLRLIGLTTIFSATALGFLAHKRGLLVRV

MAO-B [2] = biological target: T2, MAO-B; assay: Reversibility of MAO-B inhibition by dialysis; type: biochemical; details: for MAO-B residual activity, dialysed (AD): after 6 h dialysis
Protocol: Figure 6. […] For recovery experiments, preincubated enzyme mixtures were dialysed as described in the text.
Inhibition types (reversible or irreversible) were determined by dialysis, as previously described^51,52, but by using 0.06 mM kynuramine and 0.3 mM benzylamine. For the experiment of AChE, 0.5 mM ATCI was used. […] Residual activities were calculated using the measured activities of undialyzed (AU) and dialysed (AD) solutions and the activities of untreated controls (i.e. without inhibitor).

in vitro = assay: in vitro
Excerpt: The synthesised derivatives were screened for their abilities to cross the BBB using the parallel artificial membrane permeability assay (PAMPA) because this ability is a critical developmental requirement for any drug targeting neurodegenerative disorders or depression.

AChE [3] = biological target: T3, AChE (Electrophorus electricus, UniProt O42275); assay: Reversibility of AChE inhibition by dialysis; type: biochemical; details: for Reversibility of AChE inhibition: dialysis; for AChE residual activity, dialysed (AD) / AChE residual activity, undialyzed (AU): inhibitor ~2 × IC50; for AChE residual activity, dialysed (AD): after 6 h dialysis; for AChE residual activity, undialyzed (AU): before dialysis
T3 sequence (O42275 24-633): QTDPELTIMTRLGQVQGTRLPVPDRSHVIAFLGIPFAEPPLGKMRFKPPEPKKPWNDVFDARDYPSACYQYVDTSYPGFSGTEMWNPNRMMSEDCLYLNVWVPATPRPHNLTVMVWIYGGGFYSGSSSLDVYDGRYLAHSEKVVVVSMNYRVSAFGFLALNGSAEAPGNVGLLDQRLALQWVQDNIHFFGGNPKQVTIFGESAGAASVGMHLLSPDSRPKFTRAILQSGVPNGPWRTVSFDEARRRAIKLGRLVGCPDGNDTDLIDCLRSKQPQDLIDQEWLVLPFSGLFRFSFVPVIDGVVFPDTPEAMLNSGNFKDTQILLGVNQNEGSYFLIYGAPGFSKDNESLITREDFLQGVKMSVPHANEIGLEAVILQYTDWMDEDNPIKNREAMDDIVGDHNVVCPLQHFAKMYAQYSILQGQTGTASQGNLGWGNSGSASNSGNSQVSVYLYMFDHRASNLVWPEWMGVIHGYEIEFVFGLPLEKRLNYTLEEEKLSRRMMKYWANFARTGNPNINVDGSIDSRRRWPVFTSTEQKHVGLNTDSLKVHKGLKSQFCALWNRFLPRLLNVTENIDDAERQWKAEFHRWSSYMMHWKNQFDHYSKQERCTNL

AChE [4] = biological target: T3, AChE; assay: Kinetics of AChE inhibition (Lineweaver-Burk and secondary plots); type: biochemical
Protocol: as §1

normal VERO cells = assay: MTT cytotoxicity assay; details: for IC50: Chlorocebus sabaeus, Vero, read-out: IC50 in normal VERO cells
[5] = PAMPA-BBB reported values; cited from earlier work
Hela cells = assay: Total ROS assay in H2O2-treated cells; type: cell-based, human; details: for ROS levels in H2O2-treated Hela cells: 40 µg/mL compound, 100 μg/mL H2O2, fluorescent image analysis
Excerpt: ROS are considered to be the radicals primarily responsible for the neuronal death observed in various neurodegenerative disorders.
Figure 7.

AChE [6] = biological target: T3, AChE; assay: AChE inhibition assay (modified Ellman method, ATCI); type: biochemical; details: 15 min pre-incubation, mean ± SE
MAO-B [7] = biological target: T2, MAO-B; assay: Kinetics of MAO-B inhibition (Lineweaver-Burk and secondary plots); type: biochemical
Protocol: as §1

| Compound | IC50 (recombinant human MAO-A; mean ± SE) | remaining activity at 10 µM (BChE) | IC50 (MAO-B [1]) | remaining activity at 1 µM (MAO-B [1]) | SI = IC50 of MAO-A/IC50 of MAO-B (MAO-B [1]) | remaining activity at 10 µM (recombinant human MAO-A; inhibitor 10 µM, mean ± SE) | Papp (in vitro; PAMPA) | Prediction (BBB permeation class) (in vitro; PAMPA-BBB, class from Pe) | other results |
| --- | --- | --- | --- | --- | --- | --- | --- | --- | --- |
| O=C(/C=C/c1ccc([N+](=O)[O-])cc1)c1ccc(N2CCOCC2)cc1 [MO7] | 7.1 ± 0.41 µM | 70.2 ± 4.76% | 0.25 ± 0.05 µM | 26.1 ± 5.44% | 28.4 |  |  |  |  |
| NCCNC(=O)c1ccc(Cl)cn1 [Lazabemide, reference compound] |  |  |  |  |  |  |  |  | MAO-B residual activity, dialysed (AD) (MAO-B [2]; inhibitor ~2 × IC50): 90.0%; MAO-B residual activity, undialyzed (AU) (MAO-B [2]; inhibitor ~2 × IC50, before dialysis): 38.8% |
| COc1ccc(/C=C/C(=O)c2ccc(N3CCOCC3)cc2)cc1 [MO3] | > 40 µM | 56.8 ± 2.97% | 1.01 ± 0.08 µM | 79.9 ± 5.28% | >39.6 | 91 ± 3.17% |  |  |  |
| Cc1ccc(/C=C/C(=O)c2ccc(N3CCOCC3)cc2)cc1 [MO4] | 25.8 ± 1.58 µM | 80.3 ± 6.43% | 0.33 ± 0.03 µM | 49 ± 1.45% | 78.2 | 70.2 ± 1.24% |  |  |  |
| O=C(/C=C/c1ccc(Cl)cc1)c1ccc(N2CCOCC2)cc1 [MO8] | > 40 µM | 74.61 ± 0.73% | 0.32 ± 0.16 µM | 34.6 ± 5.44% | >125.0 | 83.7 ± 4.02% |  |  |  |
| CCn1cc(C(=O)O)c(=O)c2cc(F)c(N3CCNC(C)C3)c(F)c21 (stereo not shown) [Lomefloxacin, reference compound] |  |  |  |  |  |  | 1.26 ± 0.01 ×10⁻⁶ cm/s | CNS- (CNS- (low): Pe (10^−6 cm s^−1) <2.00) |  |
| CCc1ccc(/C=C/C(=O)c2ccc(N3CCOCC3)cc2)cc1 [MO6] | 8.7 ± 1.32 µM | 70.96 ± 0.36% | 0.64 ± 0.04 µM | 64.1 ± 1.37% | 13.6 | 12.3 ± 1.58% |  |  |  |
| O=C(/C=C/c1ccc(Br)cc1)c1ccc(N2CCOCC2)cc1 [MO9] | > 40 µM | 70.2 ± 5.5% | 0.36 ± 0.16 µM | 51.3 ± 2.42% | >111.1 | 79.8 ± 1.54% | 14.61 ± 0.08 ×10⁻⁶ cm/s | CNS+ (CNS+ (high): Pe (10^−6 cm s^−1) > 4.00) | Reversibility of AChE inhibition (AChE [3]): reversible inhibitors; AChE residual activity, dialysed (AD) (AChE [3]): 80.7%; AChE residual activity, undialyzed (AU) (AChE [3]): 33.8%; Type of AChE inhibition (AChE [4]): reversibly noncompetitively inhibited; also recorded: non-competitively; IC50 (normal VERO cells): 188 µg/mL (≈ 506 µM); Toxicity to normal VERO cells (normal VERO cells; MTT assay): non-toxic; BBB permeation (in vitro; PAMPA-BBB): crossed the blood–brain barrier |
| CN1C(C(=O)Nc2ccccn2)=C(O)c2ccccc2S1(=O)=O [Piroxicam, reference compound] |  |  |  |  |  |  | 2.35 ± 0.3 ×10⁻⁶ cm/s | CNS+/- | Bibliography Pe (×10^−6 cm s^−1) [5]: 2.5 ×10^−6 cm s^−1 |
| CN(C)c1ccc(/C=C/C(=O)c2ccc(N3CCOCC3)cc2)cc1 [MO5] |  |  |  |  |  |  | 14.4 ± 0.81 ×10⁻⁶ cm/s | CNS+ (CNS+ (high): Pe (10^−6 cm s^−1) > 4.00) | Reversibility of AChE inhibition (AChE [3]): reversible inhibitors; AChE residual activity, dialysed (AD) (AChE [3]): 79.2%; AChE residual activity, undialyzed (AU) (AChE [3]): 35.8%; Residual activities (%) MAO-A (10 µM) (recombinant human MAO-A; inhibitor 10 µM, mean ± SE): 88.1 ± 3.43%; Residual activities (%) BChE (10 µM) (BChE; inhibitor 10 µM, mean ± SE): 60.86 ± 1.07%; ROS levels in H2O2-treated Hela cells (Hela cells): significantly lower ROS levels than MO9; IC50 (AChE [6]): 6.1 ± 0.0048 µM; Residual activities (%) AChE (10 µM) (AChE [6]; inhibitor 10 µM): 34.5 ± 9.51%; Type of AChE inhibition (AChE [4]): reversibly competitively inhibited; IC50 in normal VERO cells (normal VERO cells; MTT assay): 185.44 µg/mL (≈ 551 µM); Toxicity to normal VERO cells (normal VERO cells; MTT assay): non-toxic; BBB permeation (in vitro; PAMPA-BBB): crossed the blood–brain barrier |
| NCCc1ccc(O)c(O)c1 [Dopamine, reference compound] |  |  |  |  |  |  |  |  | Bibliography Pe (×10^−6 cm s^−1) [5]: 0.2 ×10^−6 cm s^−1; Prediction (BBB permeation class) (in vitro; PAMPA): CNS- (key: CNS+ (high): Pe (10^−6 cm s^−1) > 4.00; CNS- (low): Pe (10^−6 cm s^−1) <2.00; CNS± (uncertain): Pe (10^−6 cm s^−1) from 4.00 to 2.00) |
| O=C(/C=C/c1ccc(O)cc1)c1ccc(N2CCOCC2)cc1 [MO2] | > 40 µM | 63.5 ± 3.3% | 0.7 ± 0.23 µM | 54.5 ± 5.28% | > 57.1 | 93.8 ± 1.34% |  |  |  |
| O=C(/C=C/c1ccccc1)c1ccc(N2CCOCC2)cc1 [MO1] |  | 62.9 ± 2.97% |  | 38.1 ± 9.5% |  |  | 16.34 ± 0.16 ×10⁻⁶ cm/s | CNS+ (CNS+ (high): Pe (10^−6 cm s^−1) > 4.00) | remaining activity at 10 µM (recombinant human MAO-A): 94.2 ± 0.62%; Reversibility of MAO-B inhibition (MAO-B [2]; dialysis): reversible inhibitor; MAO-B residual activity, dialysed (AD) (MAO-B [2]; inhibitor ~2 × IC50): 77.1%; ROS levels in H2O2-treated Hela cells (Hela cells): significantly lower ROS levels than MO9; Colony formation induced by H2O2 (Hela cells; Hela cells): markedly reduced; IC50 (AChE [6]): 16.1 ± 2.24 µM; Type of MAO-B inhibition (MAO-B [7]): reversible mixed-type inhibitor; IC50 (MAO-B [1]; read-out: IC50 (µM) MAO-B, mean ± SE): 0.03 ± 0.062 µM; IC50 (normal VERO cells): 195 µg/mL (≈ 665 µM); Toxicity to normal VERO cells (normal VERO cells; MTT assay): non-toxic; BBB permeation (in vitro; PAMPA-BBB): crossed the blood–brain barrier |
